# Laboratory results taken from patent US11021481B2, “Substituted isoindolin-1-ones and 2,3-dihydro-1h-pyrrolo[3,4-c]pyridin-1-ones as HPK1 antagonists” (Nimbus Saturn, Inc., priority 2019, dated 2021).
# Target: HPK1 (Homo sapiens (Human), UniProt Q92918)
# Assay: HPK1 biochemical enzyme assay (microfluidic mobility shift assay)
# Conditions: 1.5 nM HPK1, ATP 1 mM final, 30 min preincubation, 60 min at RT, Caliper EZ Reader; read-out: HPK1 1000UMATP caliper IC50
# Experimental: HPK1 biochemical enzyme assay: HPK1 enzyme inhibition was measured using a microfluidic mobility shift assay. […] Test compounds were titrated in ten point curves (top final assay concentration 3 μM), and preincubated with enzyme/substrate mix for 30 min prior to initiation of the reaction by addition of ATP (1 mM final concentration) and substrate (1 μM final concentration; Carna Biosciences) diluted in assay buffer supplemented by MgCl2 (final assay concentration of 5 mM). Following 60 min incubation at RT, the reaction was terminated by addition of 60 µl/well termination buffer (Carna Biosciences) and signal determination using aCaliper EZ Reader (Perkin Elmer, UK).
# The compound numbers correspond to the compound numbers in Table 1.
# HPK1, sequence (Q92918 whole entry): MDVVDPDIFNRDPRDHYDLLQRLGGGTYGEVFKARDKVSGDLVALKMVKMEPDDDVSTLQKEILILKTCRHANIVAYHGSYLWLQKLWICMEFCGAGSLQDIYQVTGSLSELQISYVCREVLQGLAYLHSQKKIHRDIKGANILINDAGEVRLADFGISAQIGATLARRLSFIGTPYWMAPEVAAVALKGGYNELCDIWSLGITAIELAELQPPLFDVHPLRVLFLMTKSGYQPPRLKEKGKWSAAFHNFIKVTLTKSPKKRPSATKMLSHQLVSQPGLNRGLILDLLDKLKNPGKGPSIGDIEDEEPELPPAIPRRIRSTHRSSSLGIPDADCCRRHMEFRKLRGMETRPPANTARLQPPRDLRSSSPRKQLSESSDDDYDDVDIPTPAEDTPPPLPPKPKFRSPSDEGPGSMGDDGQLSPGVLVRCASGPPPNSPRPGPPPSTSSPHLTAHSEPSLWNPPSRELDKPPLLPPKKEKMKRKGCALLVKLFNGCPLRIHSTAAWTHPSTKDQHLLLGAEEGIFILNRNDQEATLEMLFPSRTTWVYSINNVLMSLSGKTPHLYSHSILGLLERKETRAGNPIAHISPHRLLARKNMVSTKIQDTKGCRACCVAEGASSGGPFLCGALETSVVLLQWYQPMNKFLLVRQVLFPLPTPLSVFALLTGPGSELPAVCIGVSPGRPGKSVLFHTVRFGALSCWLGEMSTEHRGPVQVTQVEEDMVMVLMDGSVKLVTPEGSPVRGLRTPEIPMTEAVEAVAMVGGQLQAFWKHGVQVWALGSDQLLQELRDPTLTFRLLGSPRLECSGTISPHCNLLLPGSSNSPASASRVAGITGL
row,Compound,IC50 [µM]
1,"O=C1NCc2c(-c3cnc4cc(F)ccn34)ccc(Nc3cccc(O[C@H]4CCC[C@H]4O)n3)c21 (stereo in doubt) [I-354, 4-(7-fluoroimidazo [1,2-a]pyridin-3-yl)-7-((6-(((lR,2S)-2-hydroxycyclopentyl)oxy)pyri-din-2-yl)amino)isoin-dolin-1-one]",> 1
2,"C[C@H](O)[C@H]1CCCN(c2ccc(Nc3ccc(-c4cnc5cc(F)ccn45)c4c3C(=O)NC4)nc2)C1 (stereo in doubt) [I-356, 4-(7-fluoroimidazo [1,2-a]pyridin-3-yl)-7-((5-((R)-3-((R)-1-hydroxyethyl)piperidin-1-yl)pyridin-2-yl)amino)isoin-dolin-1-one]",< 0.1
3,"C[C@@H](O)[C@@H]1CCCN(c2ccc(Nc3ccc(-c4cnc5cc(F)ccn45)c4c3C(=O)NC4)nc2)C1 (stereo in doubt) [I-357, 4-(7-fluoroimidazo [1,2-a]pyridin-3-yl)-7-((5-((S)-3-((S)-1-hydroxyethyl)piperidin-1-yl)pyridin-2-yl)amino)isoin-dolin-1-one]",< 0.1
4,"C[C@H](O)[C@@H]1CCCN(c2ccc(Nc3ccc(-c4cnc5cc(F)ccn45)c4c3C(=O)NC4)nc2)C1 (stereo in doubt) [I-363, 4-(7-fluoroimidazo [1,2-a]pyridin-3-yl)-7-((5-((S)-3-((R)-1-hydroxyethyl)piperidin-1-yl)pyridin-2-yl)amino)isoin-dolin-1-one]",< 0.1
5,"C[C@H](c1ccc(Nc2ccc(-c3cnc4cc(F)ccn34)c3c2C(=O)NC3)nc1)N1CCC[C@H](O)C1 (stereo in doubt) [I-514, 4-(7-fluoroimidazo [1,2-a]pyridin-3-yl)-7-((5-((R)-1-((S)-3-hydroxypiperidin-1-yl)ethyl)pyridin-2-yl)amino)isoin-dolin-1-one]",< 0.1
6,"CO[C@@H]1CC[C@@H](CO)N(c2ccc(Nc3ccc(-c4cnn5c4CCCC5)c4c3C(=O)NC4)nc2)C1 (stereo in doubt) [I-572, 7-((5-((2R,5R)-2-(hydroxymeth-yl)-5-methoxy-piperidin-1-yl)pyridin-2-yl)amino)-4-(4,5,6,7-tetralndropyra-zolo[1,5-a]pyridin-3-yl)isoindolin-1-one]",< 0.1
7,"CN(C)C(C)(C)C1CN(c2ccc(Nc3ccc(-c4cnc5cc(F)ccn45)c4c3C(=O)NC4)nc2)CCO1 (stereo in doubt) [I-591, (S)-7-((5-(2-(2-(dimethylami-no)propan-2-yl)morpho-lino)pyridin-2-yl)amino)-4-(7-fluoroimidazo [1,2-a]pyridin-3-yl)isoindolin-l-one]",< 0.1
8,"O=C1NCc2c(-c3cnc4cc(Cl)ccn34)ccc(Nc3ccc(N4CCOCC(O)C4)cn3)c21 (stereo in doubt) [I-596, (R)-4-(7-chloroimidazo [1,2-a]pyridin-3-yl)-7-((5-(6-hydroxy-1.4-oxazepan-4-yl)pyridin-2-yl)amino)isoin-dolin-1-one]",< 0.1
9,"Cc1ccn2c(-c3ccc(Nc4ccc(N5CCOC(CN(C)C)C5)cn4)c4c3CNC4=O)cnc2c1F (stereo in doubt) [I-613, (S)-7-((5-(2-((dimethylamino)-methyl)mor-pholino)pyridin-2-yl)amino)-4-(8-fluoro-7-methylimidazo [1,2-a]pyridin-3-yl)isoindolin-1-one]",< 0.1
10,"Cc1ccn2c(-c3ccc(Nc4ccc(N5CCOC(CN(C)C)C5)cn4)c4c3CNC4=O)cnc2c1F (stereo in doubt) [I-614, (R)-7-((5-(2-((dimethylamino)-methyl)mor-pholino)pyridin-2-yl)amino)-4-(8-fluoro-7-methylimidazo [1,2-a]pyridin-3-yl)isoindolin-1-one]",< 0.1
11,"CN1CCN(c2ccc(Nc3cnc(-c4cnc5c(F)cccn45)c4c3C(=O)NC4)nc2)C[C@H]1C(C)(C)O (stereo in doubt) [I-621, (R]-4-(8-fluoroimidazo [1,2-a]pyridin-3-yl)-7-((5-(3-(2-hydroxypropan-2-yl)-4-methylpiperazin-1-yl)pyridin-2-yl)amino)-2.3-dihydro-1H-pyrrolo[3,4-c]pyridin-1-one]",< 0.1
12,"COCC1CN(c2ccc(Nc3ccc(-c4cnc5nc(C)ccn45)c4c3C(=O)NC4)nc2)CCO1 (stereo in doubt) [I-629, (S)-7-((5-(2-(methoxymeth-yl)morpho-lino)pyridin-2-yl)amino)-4-(7-methylimidazo [1,2-a]pyrimidin-3-yl) isoindolin-1-one]",< 0.1
13,"COCC1CN(c2ccc(Nc3ccc(-c4ncnc5c4ccn5C)c4c3C(=O)NC4)nc2)CCO1 (stereo in doubt) [I-649, (R)-7-((5-(2-(methylmeth-yl)morpho-lino)pyridin-2-yl)amino)-4-(7-methyl-7]-4-pyrrolo[2,3-d]pyrimidin-4-yl)isoindolin-1-one]",< 0.1
14,"CN1CC(O)(C2CCCN(c3ccc(Nc4ccc(-c5cnc6cc(F)ccn56)c5c4C(=O)NC5)nc3)C2)C1 (stereo in doubt) [I-678, (R)-4-(7-fluoroimidazo [1,2-a]pyridin-3-yl)-7-((5-(3-(3-hydroxy-1-methylazetidin-3-yl)piperidin-1-yl)pyridin-2-yl)amino)isoin-dolin-1-one]",< 0.1
15,"CN1CC(O)(C2CCCN(c3ccc(Nc4ccc(-c5cnc6cc(F)ccn56)c5c4C(=O)NC5)nc3)C2)C1 (stereo in doubt) [I-679, (S)-4-(7-fluoroimidazo [1,2-a]pyridin-3-yl)-7-((5-(3-(3-hydroxy-1-methylazetidin-3-yl)piperidin-1-yl)pyridin-2-yl)amino)isoin-dolin-1-one]",< 0.1

# Second part, the compound after the results:
row,IC50 [µM],Compound
1,< 0.1,"COCC1CN(c2ccc(Nc3ccc(-c4cnc5cnccn45)c4c3C(=O)NC4)nc2)CCO1 (stereo in doubt) [I-334, (R)-4-(imidazo[1,2-a]pyrazin-3-yl)-7-((5-(2-(methoxymeth-yl)morpholino)-pyridin-2-yl)amino)isoin-dolin-1-one]"
2,0.1 to 1,"O=C1NCc2c(-c3cnc4cc(F)ccn34)ccc(Nc3cccc(O[C@@H]4CCC[C@@H]4O)n3)c21 (stereo in doubt) [I-353, 4-(7-fluoroimidazo [1,2-a]pyridin-3-yl)-7-((6-(((1S,2R)-2-hydroxycyclo-pentyl)oxy)py-ridin-2-yl)amino) isoin-dolin-1-one]"
3,< 0.1,"C[C@@H](O)[C@H]1CCCN(c2ccc(Nc3ccc(-c4cnc5cc(F)ccn45)c4c3C(=O)NC4)nc2)C1 (stereo in doubt) [I-364, 4-(7-fluoroimidazo [1,2-a]pyridin-3-yl)-7-((5-((R)-3-((S)-1-hydroxyethyl)piperidin-1-yl)pyridin-2-yl)amino)isoin-dolin-1-one]"
4,< 0.1,"C[C@@H](c1ccc(Nc2ccc(-c3cnc4cc(F)ccn34)c3c2C(=O)NC3)nc1)N1CCC[C@H](O)C1 (stereo in doubt) [I-513, 4-(7-f1uoroimidazo [1,2-a]pyridin-3-yl)-7-((5-((S)-1-((S)-3-hydroxypiperidin-1-yl)ethyl)pyridin-2-yl)amino)isoin-dolin-1-one]"
5,< 0.1,"CN(C)C(C)(C)C1CN(c2ccc(Nc3ccc(-c4cnc5cc(F)ccn45)c4c3C(=O)NC4)nc2)CCO1 (stereo in doubt) [I-590, (R)-7-((5-(2-(2-(dimethylami-no)propan-2-yl)morpho-lino)pyridin-2-yl)amino)-4-(7-fluoroimidazo [1,2-a]pyridin-3-yl)isoindolin-1-one]"
6,< 0.1,"O=C1NCc2c(-c3cnc4cc(Cl)ccn34)ccc(Nc3ccc(N4CCOCC(O)C4)cn3)c21 (stereo in doubt) [I-595, (S)-4-(7-chloroimidazo [1,2-a]pyridin-3-yl)-7-((5-(6-hydroxy-1.4-oxazepan-4-yl)pyridin-2-yl)amino)isoin-dolin-1-one]"
7,< 0.1,"C[C@@H]1CC[C@](C)(O)CN1c1ccc(Nc2ccc(-c3cnn4c3CCCC4)c3c2C(=O)NC3)nc1 (stereo in doubt) [I-597, 7-((5-((2S,5S)-5-hydroxy-2,5-dimethyl-piperidin-1-yl)pyridin-2-yl)amino)-4-(4,5,6,7-tetrahydropyra-zolo[1,5-a]pyridin-3-yl)isoindolin-1-one]"
8,< 0.1,"CN(C)C(C)(C)C1CCCN(c2ccc(Nc3ccc(-c4cnc5cc(F)ccn45)c4c3C(=O)NC4)nc2)C1 (stereo in doubt) [I-606, (R)-7-((5-(3-(2-(dimethylami-no)propan-2-yl)piperidin-1-yl)pyridin-2-yl)amino)-4-(7-fluoroimidazo [1,2-a]pyridin-3-yl)isoindolin-1-one]"
9,< 0.1,"CN(C)C(C)(C)C1CCCN(c2ccc(Nc3ccc(-c4cnc5cc(F)ccn45)c4c3C(=O)NC4)nc2)C1 (stereo in doubt) [I-607, (S)-7-((5-(3-(2-(dimethylami-no)propan-2-yl)piperidin-1-yl)pyridin-2-yl)amino)-4-(7-fluoroimidazo [1,2-a]pyridin-3-yl)isoindolin-1-one]"
10,< 0.1,"CN1CCN(c2ccc(Nc3cnc(-c4cnc5c(F)cccn45)c4c3C(=O)NC4)nc2)CC1C(C)(C)O (stereo in doubt) [I-622, (S)-4-(8-fluoroimidazo [1,2-a]pyridin-3-yl)-7-((5-(3-(2-hydroxypropan-2-yl)-4-methylpiperazin-1-yl)pyridin-2-yl)amino)-2.3-dihydro-1H-pyrrolo[3,4-c]pyridin-1-one]"
11,< 0.1,"COCC1CN(c2ccc(Nc3ccc(-c4cnc5nc(C)ccn45)c4c3C(=O)NC4)nc2)CCO1 (stereo in doubt) [I-628, (R)-7-((5-(2-(methoxymeth-yl)morpho-lino)pyridin-2-yl)amino)-4-(7-methylimidazol',2-a]pyriinidin-3-yl)isoindolin-1-one]"
12,< 0.1,"COCC1CN(c2ccc(Nc3ccc(-c4ncnc5c4ccn5C)c4c3C(=O)NC4)nc2)CCO1 (stereo in doubt) [I-650, (S)-7-((5-(2-(methoxymeth-yl)morpho-lino)pyridin-2-yl)amino)-4-(7-methyl-7H-pyrrolo[2,3-d|pyrimidin-4-yl)isoindolin-1-one]"
